Laboratory results: US20110190235A1, “BORON-CONTAINING SMALL MOLECULES AS ANTIPROTOZOAL AGENTS” (Anacor Pharmaceuticals, Inc., priority 2009, published 2011)
Where two headings read alike, the source gives them in different places.

Legend:
[1] = system: bloodstream-form trypanosome T. brucei brucei 427 strain; test: Trypanosoma brucei brucei high-throughput in vitro drug sensitivity assay (resazurin); assay type: cell-based; settings: for IC50: Trypanosoma brucei, 72 hrs incubation; for Selectivity Index (L929 IC50 / T. b. brucei IC50): T. b. brucei vs L929
[2] = L929 cytotoxicity evaluation (resazurin); assay type: cell-based; settings: mouse, L929 mouse fibroblast cells; 72 hrs incubation; read-out: Cytotox L-929 IC50
Experimental: For evaluation of compound effects on mammalian cells, L929 mouse fibroblast cells were used. Cells were maintained as adherent cultures in T-25 vented cap flasks in a humidified incubator at 37° C. in the presence of 5% CO2. Culture media was D-MEM supplemented with 10% fetal bovine serum and 1% penicillin/streptomycin. L929 cells were maintained below confluent levels by sub-culturing at 1:10 dilution twice weekly using 0.05% trypsin for detachment.
Sub-confluent L929 cells were trypsinized, resuspended in fresh media and 10 uL was counted using hemocytometer to determine cell concentration. Cells were diluted to 1×10^4/mL in DMEM, dispensed (100 uL) into 96-well plates using a Multidrop 384 dispenser and allowed to attach overnight. Spent media was replaced with 99.5 uL fresh D-MEM and compounds to be tested were serially diluted in DMSO and 0.5 uL added using a Biomek NX liquid handler. Plates were incubated with compounds for 72 hrs at 37° C. with 5% CO2. Resazurin (20 uL of 12.5 mg/ml stock) from Sigma-Aldrich was added to each well and plates were incubated for an additional 3-4 hrs. Assay plates were read using an EnVision plate reader at an excitation wavelength of 544 nm and emission of 590 nm. Single data points were used to generate sigmoidal dose response curves and determine IC50 values using XLfit curve fitting software from IDBS (Guildford, UK).

CC1(C)OB(O)c2cc(NC(=O)c3ccc(OC(F)(F)F)cc3)ccc21 [compound 53, N-(1-Hydroxy-3,3-dimethyl-1,3-dihydro-benzo[c][1,2]oxaborol-6-yl)-4-trifluoromethoxy-benzamide]
IC50 ([1]; read-out: T.b. brucei IC50): 0.407 µg/mL | IC50 at 72 h [2]: > 10 µg/mL

CC1(C)OB(O)c2cc(NC(=O)c3ccc(SC(F)(F)F)cc3)ccc21 [compound 54, N-(1-Hydroxy-3,3-dimethyl-1,3-dihydro-benzo[c][1,2]oxaborol-6-yl)-4-trifluoromethylsulfanyl-benzamide]
IC50 ([1]; read-out: T.b. brucei IC50): 0.571 µg/mL | IC50 at 72 h [2]: > 10 µg/mL

CC1(C)OB(O)c2cc(NC(=O)c3ccccc3[N+](=O)[O-])ccc21 [compound 55, N-(1-Hydroxy-3,3-dimethyl-1,3-dihydro-benzo[c][1,2]oxaborol-6-yl)-2-nitro-benzamide]
IC50 ([1]; read-out: T.b. brucei IC50): 0.122 µg/mL | IC50 at 72 h [2]: > 10 µg/mL

CC1(C)OB(O)c2cc(NC(=O)c3ccc([N+](=O)[O-])cc3)ccc21 [compound 56, N-(1-Hydroxy-3,3-dimethyl-1,3-dihydro-benzo[c][1,2]oxaborol-6-yl)-4-nitro-benzamide]
IC50 ([1]; read-out: T.b. brucei IC50): > 5 µg/mL | IC50 at 72 h [2]: > 10 µg/mL

CC1(C)OB(O)c2cc(NC(=O)c3ccc(C#N)cc3)ccc21 [compound 57, 4-Cyano-N-(1-hydroxy-3,3-dimethyl-1,3-dihydro-benzo[c][1,2]oxaborol-6-yl)-benzamide]
IC50 ([1]; read-out: T.b. brucei IC50): > 5 µg/mL | IC50 at 72 h [2]: > 10 µg/mL

COC(=O)c1ccc(C(=O)Nc2ccc3c(c2)B(O)OC3(C)C)cc1 [compound 58, N-(1-Hydroxy-3,3-dimethyl-1,3-dihydro-benzo[c][1,2]oxaborol-6-yl)-terephthalamic acid methyl ester]
IC50 ([1]; read-out: T.b. brucei IC50): 1.11 µg/mL | IC50 at 72 h [2]: > 10 µg/mL

CC(=O)Nc1ccc(C(=O)Nc2ccc3c(c2)B(O)OC3(C)C)cc1 [compound 59, 4-Acetylamino-N-(1-hydroxy-3,3-dimethyl-1,3-dihydro-benzo[c][1,2]oxaborol-6-yl)-benzamide]
IC50 ([1]; read-out: T.b. brucei IC50): 1.61 µg/mL | IC50 at 72 h [2]: > 10 µg/mL

CC1(C)OB(O)c2cc(NC(=O)c3ccc(-c4cccs4)cc3)ccc21 [compound 60, N-(1-Hydroxy-3,3-dimethyl-1,3-dihydro-benzo[c][1,2]oxaborol-6-yl)-4-thiophen-2-yl-benzamide]
IC50 ([1]; read-out: T.b. brucei IC50): 0.205 µg/mL | IC50 at 72 h [2]: > 10 µg/mL

CC1(C)OB(O)c2cc(NC(=O)c3ccc(N4CCOCC4)cc3)ccc21 [compound 61, N-(1-Hydroxy-3,3-dimethyl-1,3-dihydro-benzo[c][1,2]oxaborol-6-yl)-4-morpholin-4-yl-benzamide]
IC50 ([1]; read-out: T.b. brucei IC50): 1.6 µg/mL | IC50 at 72 h [2]: > 10 µg/mL

CC1(C)OB(O)c2cc(NC(=O)c3ccc(-c4ccccc4)cc3)ccc21 [compound 62, Biphenyl-4-carboxylic acid (1-hydroxy-3,3-dimethyl-1,3-dihydro-benzo[c][1,2]oxaborol-6-yl)-amide]
IC50 ([1]; read-out: T.b. brucei IC50): 0.365 µg/mL | IC50 at 72 h [2]: > 10 µg/mL

CC1(C)OB(O)c2cc(NC(=O)c3ccc(F)cc3F)ccc21 [compound 63, 2,4-Difluoro-N-(1-hydroxy-3,3-dimethyl-1,3-dihydro-benzo[c][1,2]oxaborol-6-yl)-benzamide]
Selectivity Index (L929 IC50 / T. b. brucei IC50) [1]: >4 | IC50 ([1]; read-out: T. b. brucei IC50): 8.39 µM | IC50 ([1]; read-out: T.b. brucei IC50): 2.66 µg/mL | IC50 at 72 h [2]: > 10 µg/mL

CC1(C)OB(O)c2cc(NC(=O)c3c(F)cccc3F)ccc21 [compound 64, 2,6-Difluoro-N-(1-hydroxy-3,3-dimethyl-1,3-dihydro-benzo[c][1,2]oxaborol-6-yl)-benzamide]
IC50 ([1]; read-out: T.b. brucei IC50): 0.724 µg/mL | IC50 at 72 h [2]: > 10 µg/mL

CC1(C)OB(O)c2cc(NC(=O)c3cccc(Cl)c3Cl)ccc21 [compound 66, 2,3-Dichloro-N-(1-hydroxy-3,3-dimethyl-1,3-dihydro-benzo[c][1,2]oxaborol-6-yl)-benzamide]
IC50 ([1]; read-out: T.b. brucei IC50): 0.292 µg/mL | IC50 at 72 h [2]: > 10 µg/mL

CC1(C)OB(O)c2cc(NC(=O)c3ccc(Cl)c(Cl)c3)ccc21 [compound 67, 3,4-Dichloro-N-(1-hydroxy-3,3-dimethyl-1,3-dihydro-benzo[c][1,2]oxaborol-6-yl)-benzamide]
IC50 ([1]; read-out: T.b. brucei IC50): > 5 µg/mL | IC50 at 72 h [2]: > 10 µg/mL

CC1(C)OB(O)c2cc(NC(=O)c3c(Cl)cccc3Cl)ccc21 [compound 68, 2,6-Dichloro-N-(1-hydroxy-3,3-dimethyl-1,3-dihydro-benzo[c][1,2]oxaborol-6-yl)-benzamide]
IC50 ([1]; read-out: T.b. brucei IC50): 2.23 µg/mL | IC50 at 72 h [2]: > 10 µg/mL

CC1(C)OB(O)c2cc(NC(=O)c3cccc(Cl)c3F)ccc21 [compound 70, 3-Chloro-2-fluoro-N-(1-hydroxy-3,3-dimethyl-1,3-dihydro-benzo[c][1,2]oxaborol-6-yl)-benzamide]
IC50 ([1]; read-out: T.b. brucei IC50): 0.377 µg/mL | IC50 at 72 h [2]: > 10 µg/mL

CC1(C)OB(O)c2cc(NC(=O)c3ccc(Cl)cc3F)ccc21 [compound 71, 4-Chloro-2-fluoro-N-(1-hydroxy-3,3-dimethyl-1,3-dihydro-benzo[c][1,2]oxaborol-6-yl)-benzamide]
IC50 ([1]; read-out: T.b. brucei IC50): 0.697 µg/mL | IC50 at 72 h [2]: > 10 µg/mL

CC1(C)OB(O)c2cc(NC(=O)c3cc(Cl)ccc3F)ccc21 [compound 72, 5-Chloro-2-fluoro-N-(1-hydroxy-3,3-dimethyl-1,3-dihydro-benzo[c][1,2]oxaborol-6-yl)-benzamide]
IC50 ([1]; read-out: T.b. brucei IC50): 0.407 µg/mL | IC50 at 72 h [2]: > 10 µg/mL

CC1(C)OB(O)c2cc(NC(=O)c3c(F)cccc3Cl)ccc21 [compound 73, 2-Chloro-6-fluoro-N-(1-hydroxy-3,3-dimethyl-1,3-dihydro-benzo[c][1,2]oxaborol-6-yl)-benzamide]
IC50 ([1]; read-out: T.b. brucei IC50): 2.44 µg/mL | IC50 at 72 h [2]: > 10 µg/mL

CC1(C)OB(O)c2cc(NC(=O)c3ccc(F)cc3Br)ccc21 [compound 74, 2-Bromo-4-fluoro-N-(1-hydroxy-3,3-dimethyl-1,3-dihydro-benzo[c][1,2]oxaborol-6-yl)-benzamide]
Selectivity Index (L929 IC50 / T. b. brucei IC50) [1]: >18 | IC50 ([1]; read-out: T. b. brucei IC50): 1.49 µM | IC50 ([1]; read-out: T.b. brucei IC50): 0.564 µg/mL | IC50 at 72 h [2]: > 10 µg/mL

CC1(C)OB(O)c2cc(NC(=O)c3ccc(Cl)cc3Br)ccc21 [compound 75, 2-Bromo-4-chloro-N-(1-hydroxy-3,3-dimethyl-1,3-dihydro-benzo[c][1,2]oxaborol-6-yl)-benzamide]
IC50 ([1]; read-out: T.b. brucei IC50): 0.405 µg/mL | IC50 at 72 h [2]: > 10 µg/mL

CC1(C)OB(O)c2cc(NC(=O)c3ccc(I)cc3Cl)ccc21 [compound 77, 2-Chloro-N-(1-hydroxy-3,3-dimethyl-1,3-dihydro-benzo[c][1,2]oxaborol-6-yl)-4-iodo-benzamide]
IC50 ([1]; read-out: T.b. brucei IC50): 0.05 µg/mL | IC50 at 72 h [2]: > 10 µg/mL

Cc1ccc(C(=O)Nc2ccc3c(c2)B(O)OC3(C)C)c(C)c1 [compound 78, N-(1-Hydroxy-3,3-dimethyl-1,3-dihydro-benzo[c][1,2]oxaborol-6-yl)-2,4-dimethyl-benzamide]
IC50 ([1]; read-out: T.b. brucei IC50): 1.1 µg/mL | IC50 at 72 h [2]: > 10 µg/mL

CC1(C)OB(O)c2cc(NC(=O)c3ccc(C(F)(F)F)cc3C(F)(F)F)ccc21 [compound 79, N-(1-Hydroxy-3,3-dimethyl-1,3-dihydro-benzo[c][1,2]oxaborol-6-yl)-2,4-bis-trifluoromethyl-benzamide]
IC50 ([1]; read-out: T.b. brucei IC50): 1.1 µg/mL | IC50 at 72 h [2]: > 10 µg/mL

CC1(C)OB(O)c2cc(NC(=O)c3cc(C(F)(F)F)cc(C(F)(F)F)c3)ccc21 [compound 80, N-(1-Hydroxy-3,3-dimethyl-1,3-dihydro-benzo[c][1,2]oxaborol-6-yl)-3,5-bis-trifluoromethyl-benzamide]
IC50 ([1]; read-out: T.b. brucei IC50): > 5 µg/mL | IC50 at 72 h [2]: > 10 µg/mL

CC1(C)OB(O)c2cc(NC(=O)c3cc(C(F)(F)F)ccc3C(F)(F)F)ccc21 [compound 81, N-(1-Hydroxy-3,3-dimethyl-1,3-dihydro-benzo[c][1,2]oxaborol-6-yl)-2,5-bis-trifluoromethyl-benzamide]
IC50 ([1]; read-out: T.b. brucei IC50): 0.183 µg/mL | IC50 at 72 h [2]: > 10 µg/mL

CC1(C)OB(O)c2cc(NC(=O)c3cccc(C(F)(F)F)c3F)ccc21 [compound 83, 2-Fluoro-N-(1-hydroxy-3,3-dimethyl-1,3-dihydro-benzo[c][1,2]oxaborol-6-yl)-3-trifluoromethyl-benzamide]
IC50 ([1]; read-out: T.b. brucei IC50): 0.543 µg/mL | IC50 at 72 h [2]: > 10 µg/mL

CC1(C)OB(O)c2cc(NC(=O)c3ccc(C(F)(F)F)cc3F)ccc21 [compound 84, 2-Fluoro-N-(1-hydroxy-3,3-dimethyl-1,3-dihydro-benzo[c][1,2]oxaborol-6-yl)-4-trifluoromethyl-benzamide]
IC50 ([1]; read-out: T.b. brucei IC50): 0.533 µg/mL | IC50 at 72 h [2]: > 10 µg/mL

CC1(C)OB(O)c2cc(NC(=O)c3cc(C(F)(F)F)ccc3F)ccc21 [compound 85, 2-Fluoro-N-(1-hydroxy-3,3-dimethyl-1,3-dihydro-benzo[c][1,2]oxaborol-6-yl)-5-trifluoromethyl-benzamide]
IC50 ([1]; read-out: T.b. brucei IC50): 1.14 µg/mL | IC50 at 72 h [2]: > 10 µg/mL

CC1(C)OB(O)c2cc(NC(=O)c3c(F)cccc3C(F)(F)F)ccc21 [compound 86, 2-Fluoro-N-(1-hydroxy-3,3-dimethyl-1,3-dihydro-benzo[c][1,2]oxaborol-6-yl)-6-trifluoromethyl-benzamide]
IC50 ([1]; read-out: T.b. brucei IC50): 0.425 µg/mL | IC50 at 72 h [2]: > 10 µg/mL

Cc1cc(F)ccc1C(=O)Nc1ccc2c(c1)B(O)OC2(C)C [compound 87, 4-Fluoro-N-(1-hydroxy-3,3-dimethyl-1,3-dihydro-benzo[c][1,2]oxaborol-6-yl)-2-methyl-benzamide]
IC50 ([1]; read-out: T.b. brucei IC50): 3.88 µg/mL | IC50 at 72 h [2]: > 10 µg/mL
